Results on nine compounds are retold here after paper PMC12812009, “Optimization of 4‐Amino‐2‐Pyridone Inhibitors of Proprotein Convertase Subtilisin/Kexin Type 9: Integrating Structure–Activity and Structure–Metabolism Relationships” (Chemmedchem, 2025).

Read-outs that look alike come from different tables or passages of the source.

A short description of data set [1]: MTT cell viability assay in HepG2 cell cultures. Format: cell-based, human. Particulars: human, HepG2 cells, MTT. As for the experimental part:
The approach we set‐up to test the new PCSK9i was based on functional assay, which evaluated at the same time compounds cytotoxicity, and their effect on the secreted PCSK9 on the same cell line. First, cell viability was evaluated in HepG2 cell cultures using the MTT assay (CC50 values are reported in Table 1 and Figure 5 ) after 24 h of incubation in starving conditions (0.4% fetal bovine serum (FBS)). The low FBS concentration, and thus low extracellular lipoproteins, stimulates the sterol responsive element binding protein (SREBP) pathway, inducing the expression of LDLR, PCSK9, HMG‐CoA reductase,^[ [28] ^] thus increasing the uptake of exogenous cholesterol and enhancing the synthesis of endogenous cholesterol. This first step allowed us to calculate the CC50 and identify the noncytotoxic concentrations (viability higher than 90%; Table 1), then tested for PCSK9 inhibitory activity.
Cell viability was assessed using the MTT assay. Cells were seeded in 96‐well plates (2.5 × 10^4 cells/well) in MEM supplemented with 10% v/v FBS and incubated for 24 h. The cells were then treated with the synthesized compounds dissolved in DMSO at increasing concentrations (from 0.5 to 50 µM) in MEM supplemented with 0.4% v/v FBS for 24 h. Simvastatin [20 and 40 µM] and BBR [10 µM] (both from Merck, St. Louis, Missouri, USA) were used as internal controls as PCSK9 inducer and inhibitor, respectively.^[ [21] ^, [34] ^, [35] ^] The cells were then incubated for 2 h with a solution of MTT [1 mg mL^–1] in MEM supplemented with 0.4% v/v FBS, away from light sources. The supernatant was then collected and 200 µL of DMSO was added to each well to solubilize the newly formed formazan. Finally, an aliquot of 100 µL was taken to measure the absorbance at a wavelength of 570 nm using an absorbance microplate reader (Spark Tecan, Switzerland). Every experimental condition was run in duplicate and the average cell viability and standard deviation was calculated. Cell viability was expressed as the percentage of treated cells compared to untreated (basal) cells. CC50 values for each compound were calculated by interpolating the percentage of cell viability through nonlinear regression analysis of the log (inhibition) versus response using GraphPad Prism software version 8.0 (GraphPad Software Inc., La Jolla, CA).

The subject of data set [2] is secreted PCSK9. The data set is described as follows: PCSK9 secretion in culture medium, ELISA on HepG2 supernatants. It is filed as cell-based, human. Conditions: for decrease of secreted PCSK9 vs. basal: given as decrease. As for the experimental part: Next, the levels of secreted PCSK9 were quantified by ELISA assay (Figure 5) only on supernatants collected from cells treated with noncytotoxic concentrations of each compound, as reported in Table 1. Simvastatin (Simva) at 20 and 40 μM and berberine (BBR) at 10 μM were included as controls. As described in the literature, simvastatin induces PCSK9 expression as a compensatory mechanism in response to its cholesterol‐lowering effects, being a pharmacological competitor for HMG‐CoA reductase, the rate‐limiting enzyme of the cholesterol biosynthetic pathway.^[ [29] ^] In contrast, BBR, a natural compound, reduces the expression of PCSK9 levels through transcriptional inhibition, thus increasing the LDLR availability on plasma membrane.^[ [30] ^] As additional and distinct mechanism to the latter, BBR is also able to stabilize the transcript of LDLR, thus increasing its half‐life.^[ [31] ^] As expected, cells stimulated with simvastatin released more PCSK9 into the culture medium compared to unstimulated cells, with a statistically significant concentration‐dependent effect (+73% at 20 μM, p < 0.01; +200% at 40 μM, p < 0.0001), while BBR at 10 μM decreased PCSK9 levels in the medium more than 50% (p < 0.0001 vs. basal) (Figure 5).^[ [32] ^] The amount of PCSK9 secreted into the culture media was measured with an appropriate ELISA kit (R&D System, DY3888 and DY008B2) on the supernatants collected during the MTT assay. Every experimental condition was run in duplicate and the average PCSK9 secretion and standard deviation was calculated. A 4PL regression analysis was used to interpolate unknowns with the standard curve using GraphPad Prism v10.2, according to manufacturers’ instructions. The data were normalized onto the corresponding cell viability, and IC50 was then calculated using GraphPad Prism v10.2.
A general note: In an ELISA, binding on a coated surface is turned into a signal by an enzyme label.

The nature of data set [3]: In vitro metabolic stability with mouse liver microsomes. Format: in vitro ADME. Conditions: 60 min; for metabolic stability (in words): MLM + NADPH-generating system. As for the experimental part:
All newly synthesized LSF derivatives of 5c were biologically evaluated to determine whether the introduced modifications influenced both metabolic stability and anti‐PCSK9 activity. Microsomal stability assays were conducted to assess the impact of LSF modifications on improving the stability of 5c. In these assays, LSF derivatives were incubated with mouse liver microsomes (MLM) and an NADPH‐generating system for 60 min, followed by HPLC analysis. Control samples included compounds and liver microsomes without the NADPH system, allowing for the assessment of nonspecific binding to microsomes. […] Acylated derivatives 12, 13, and 14 achieved stability levels exceeding 95%, as did the bicyclic derivative 7, which exemplifies a dual‐site functionalization.
MLM (pooled male) were obtained from Xenotech, LLC (Cambridge, Kansas City, USA). Glucose‐6‐phosphate (G6P), oxidized nicotinamide‐adenine‐dinucleotide phosphate (NADP^+), magnesium chloride (MgCl2), and glucose‐6‐phosphate‐dehydrogenase (G6PDH) were supplied by Sigma‐Aldrich (Milan, Italy). Metabolic stability assays were modified from Ferlenghi et al.^[ [33] ^] Briefly, samples were prepared in 100 mM phosphate buffered saline (PBS), pH 7.4, containing 1 mg ml^–1 MLM and a NADPH‐generating system (5 mM MgCl2, 10 mM glucose‐6‐phosphate, 2 mM NADP^+, 1.5 U ml^–1 of glucose‐6‐phosphate dehydrogenase). After incubation (37 °C, 5 min stirring), compounds stock solutions in DMSO were added to a final concentration of 10 µM. The final DMSO percentage in samples was kept at 0.5%. After 60 min, single aliquots of reaction mixture were withdrawn, added of two volumes of acetonitrile, centrifuged (10,000 g, 10 min) and the supernatant was analyzed by HPLC. The unspecific binding to MLM was evaluated by means of control samples in which the compounds were incubated in the absence of a NADPH generating system. The apparatus used for HPLC analysis was a Shimadzu instrument, with a reverse‐phase Nova‐Pak column (Waters) (C18 4 μm 3.9 × 150 mm, Waters). The mobile phase, pumped at a flow rate of 1.2 ml min^–1, consisted of water and acetonitrile in either a 50:50 (v/v) ratio (compounds 5c, 6a, 6b, 6c, 7, 8, 12, 13, 14, 17b) or a 40:60 (v/v) ratio (compounds 11 and 15) or a 30:70 (v/v) ratio (for compounds 17a, 18a, 18b). For compounds 9 and 10, a phosphate buffer (5.98 g L^–1 Na2HPO4, 0.19 g L^–1 KH2PO4, adjusted to pH 7.4 with 85% H3PO4 and supplemented with 1.4 mL L^–1 triethylamine; final pH: 8) and acetonitrile (50:50, v/v) were pumped at a flow rate of 2 mL min^–1. In all cases, column temperature was 35 °C, injection volume was 50 µl, and absorbance was monitored at 254 nm. Serial dilutions for the calibration curves were prepared in the interval 0.5–20 µM in either PBS:CH3CN or H2O:CH3CN mixture (50:50, v/v) for compounds 5c, 6a, 6b, 8, 9, 10, 11, 12, 13, 14, 15, 17a, 17b, 18a, 18b, and in acetonitrile for compounds 6c and 7.
On the technique in general: Liver microsomes are vesicles of endoplasmic reticulum, rich in cytochrome P450 enzymes.

Setting [4] is: printed in Figures 5 and 8, HepG2, 24 h, read-out: CC50.
[5] abbreviates: 24 h incubation, HepG2, 0.4% FBS, 0.5-50.0 μM, read-out: CC50 (CI 95%).
Where [6] appears, read: Homo sapiens, HepG2, Table S2, ELISA, non-cytotoxic concentrations, read-out: IC50 ± SD on PCSK9 secreted by HepG2.
[7] abbreviates: Homo sapiens, HepG2, 24 h, read-out: secreted PCSK9 change vs. basal.
The mark [8] stands for this setting: HepG2, 24 h, non-cytotoxic concentrations.

Broadly, the CC50 is the concentration that lowers cell viability or growth by half. Usually IC50 stands for the point on the concentration scale where inhibition reaches its midpoint. `COc1ccc2cc3[n+](cc2c1OC)CCc1cc2c(cc1-3)OCO2` [BBR, berberine, reference compound]: the CC50 at 24 h in data set [1] (setting [4]) was 25 µM. In data set [2] (10 μM, HepG2, 24 h), the “decrease of secreted PCSK9 vs. basal” value was “more than 50%”. The inhibition at 10 µM in data set [2] (Homo sapiens, 10 μM, HepG2, 24 h, read-out: secreted PCSK9 change vs. basal) amounted to 52%. Also, the IC50 in data set [2] (Homo sapiens, HepG2, 24 h, ELISA on supernatants, normalized to viability, Figures 5 and 8 and text, read-out: IC50 (anti-PCSK9 activity, PCSK9 secretion)) was 10 µM.

`Cc1cc(NCc2ccc(C(F)(F)F)cc2)c(Cl)c(=O)n1Cc1ccc(C(F)(F)F)cc1` [Compound 6a, 3‐Chloro‐6‐Methyl‐1‐(4‐(Trifluoromethyl)Benzyl)‐4‐((4‐(Trifluoromethyl)Benzyl)Amino)pyridin‐2(1H)‐One]: the CC50 at 24 h in data set [1] (setting [5]) is 16 µM. In addition, the IC50 in data set [2] (setting [6]) was 5.4 ± 2.65 µM. For the same compound, the inhibition at 0.5 µM in data set [2] (setting [7]) is 80%. In data set [2] (Homo sapiens, 5 μM, HepG2, 24 h, read-out: secreted PCSK9 change vs. basal), the inhibition at 5 µM worked out at 55%.

For the compound `Cc1cc(NCc2ccc(C(F)(F)F)cc2)c(I)c(=O)n1Cc1ccc(C(F)(F)F)cc1` [Compound 6c, 3‐Iodo‐6‐Methyl‐1‐(4‐(Trifluoromethyl)Benzyl)‐4‐((4‐(Trifluoromethyl)Benzyl)Amino)pyridin‐2(1H)‐One], the CC50 at 24 h in data set [1] (setting [5]) was 46.9 µM. Besides, in data set [3], the “metabolic stability (in words)” value is “did not improve compared to the parent compound 5c”. Also, the inhibition at 0.5 µM in data set [2] (setting [7]) came out at 20%.

For the compound `CO/C(=N\c1cc(C)n(Cc2ccc(C(F)(F)F)cc2)c(=O)c1)c1ccc(C(F)(F)F)cc1` [Compound 8, Methyl (Z)‐N‐(6‐Methyl‐2‐Oxo‐1‐(4‐(Trifluoromethyl)Benzyl)‐1,2‐Dihydropyridin‐4‐yl)‐4‐(Trifluoromethyl)Benzimidate], the CC50 at 24 h in data set [1] (setting [5]) amounted to 30.2 µM; in data set [1] (setting [4]), 43.1 µM. Moreover, the “metabolic stability (in words)” value in data set [3] is reported as “entirely metabolized”. Further, the “decrease of secreted PCSK9 vs. basal” value in data set [2] (10 μM, HepG2, 24 h) amounted to 50%. In data set [2] (setting [6]), the IC50 stood at 7.2 ± 0.51 µM.

As for `Cc1cc(NCc2ccc(C(F)(F)F)cc2)c(CN2CCCC2)c(=O)n1Cc1ccc(C(F)(F)F)cc1` [Compound 9, 6‐Methyl‐3‐(Pyrrolidin‐1‐ylmethyl)‐1‐(4‐(Trifluoromethyl)Benzyl)‐4‐((4‐(Trifluoromethyl)Benzyl)Amino)pyridin‐2(1H)‐One], the CC50 at 24 h in data set [1] (setting [5]) worked out at 22.2 µM. In addition, the “metabolic stability (in words)” value in data set [3] is recorded as “did not exhibit any enhancements relative to 5c”. In addition, the “effect on PCSK9 secretion (in words)” value in data set [2] (setting [8]) is recorded as “moderate but significant inhibition of PCSK9 secretion”.

For the compound `Cc1cc2c(c(=O)n1Cc1ccc(C(F)(F)F)cc1)CN(C(C)C)CN2Cc1ccc(C(F)(F)F)cc1` [Compound 10, 3‐Isopropyl‐7‐Methyl‐1,6‐Bis(4‐(Trifluoromethyl)Benzyl)‐2,3,4,6‐Tetrahydropyrido[4,3‐d]pyrimidin‐5(1H)‐One], in data set [1] (setting [5]), the CC50 at 24 h was 21.9 µM. Also, the “metabolic stability (in words)” value in data set [3] is recorded as “less stable”.

As for `Cc1cc2c(c(=O)n1Cc1ccc(C(F)(F)F)cc1)CCC(=O)N2Cc1ccc(C(F)(F)F)cc1` [Compound 11, 7‐Methyl‐1,6‐Bis(4‐(Trifluoromethyl)Benzyl)‐4,6‐Dihydro‐1,6‐Naphthyridine‐2,5(1H,3H)‐Dione], the half-maximal cytotoxic concentration (CC50) at 24 h in data set [1] (setting [5]) was 28 µM. For the same compound, the “metabolic stability (in words)” value in data set [3] is on record as “modest yet notable improvement in stability”. For the same compound, the “effect on PCSK9 secretion (in words)” value in data set [2] (setting [8]) is “moderate but significant inhibition of PCSK9 secretion”. Further, the IC50 in data set [2] (setting [6]) worked out at 10.2 ± 2.81 µM.

Regarding `CC(=O)N(Cc1ccc(C(F)(F)F)cc1)c1cc(C)n(Cc2ccc(C(F)(F)F)cc2)c(=O)c1` [Compound 12, N‐(6‐Methyl‐2‐Oxo‐1‐(4‐(Trifluoromethyl)Benzyl)‐1,2‐Dihydropyridin‐4‐yl)‐N‐(4‐(Trifluoromethyl)Benzyl)Acetamide], the CC50 at 24 h in data set [1] (setting [5]) worked out at 43 µM. In addition, the “metabolic stability, percentage of intact compound recovered relative to control” value in data set [3] (MLM 1 mg/ml + NADPH-generating system, 10 µM, HPLC) is recorded as “exceeding 95%”. Further, the “effect on PCSK9 secretion (in words)” value in data set [2] (setting [8]) is listed as “did not inhibit PCSK9 in a dose‐dependent manner”. Moreover, the IC50 in data set [2] (setting [6]) turned out to be 13.6 ± 2.67 µM. The inhibition at 25 µM in data set [2] (Homo sapiens, 25 μM, HepG2, 24 h, read-out: secreted PCSK9 change vs. basal) was 75%.

For the compound `CCC(C)(C)C(=O)O[C@H]1C[C@@H](C)C=C2C=C[C@H](C)[C@H](CC[C@@H]3C[C@@H](O)CC(=O)O3)[C@H]21` [simvastatin, reference compound], the “secreted PCSK9 change vs. unstimulated cells” value is given as “+73%” in data set [2] (20 μM, HepG2, 24 h) and “+200%” in data set [2] (40 μM, HepG2, 24 h).
